The record followed here is patent US11851695B2, “Preparing novel steviol glycosides by bioconversion” (The Coca-Cola Company, priority 2016, dated 2023).

A short description of the experiment: Sensory evaluation by a trained panel, single sip protocol. The settings on record: mean panel score, 400 ppm in water at 4° C.; for Bitter Aftertaste Intensity / Sweet Linger Intensity: 1 minute after tasting; for Overall Max Bitterness / Overall Max Sweetness: from sip up to 1 minute; for Bitter Intensity In Mouth: maximum bitterness in mouth during 5 seconds; for Sweet Intensity In Mouth: maximum sweetness in mouth during 5 seconds. It is filed as in vivo. Here is the method:
The sensory profiles of CC-00326, CC-00342 and CC-00345 were compared to rebaudioside M.
A trained panel evaluated the various samples. Samples were evaluated using a single sip protocol as follows: • Samples were served at approximately 4° C. • Panelists were instructed to take 1 sip of the sample, hold in mouth for 5 seconds, expectorate, and rate the given attributes • A 5 minute break was placed between each sample and panelists were instructed to cleanse their palates with at least 1 bite of unsalted cracker and 2 sips of filtered water • Due to limited sample quantity panelists were given 7 mL aliquots of each sample • Samples were randomized within each session for each panelist • All samples were presented in replicate in each session
Samples were evaluated for the following: • Sweet taste intensity: maximum level of sweetness in mouth during 5 seconds • Bitter taste intensity: maximum level of bitterness in mouth during 5 seconds • Overall maximum sweet intensity: maximum sweet intensity experienced from the time the sip is taken up to 1 minute • Overall maximum bitter intensity: […] experienced from the time the sip is taken up to 1 minute • Sweet linger intensity: sweet intensity 1 minute after tasting the sample • Bitter aftertaste intensity: bitter intensity 1 minute after tasting the sample
Data was analyzed with an ANOVA, with Sample as fixed effects and Panelist and interaction as random effects was used to determine significance between the samples for each attribute at the 95% Confidence Level, two-tailed. Fishers LSD was used to determine significant differences between mean scores.
The sensory profile of (i) 400 ppm CC-00326 was compared to (ii) 400 ppm Reb M 80% (rebaudioside M content 80% by weight on a dry basis). Both samples (i) and (ii) were formulated in a water matrix at 4° C.
The sensory profile of (i) 400 ppm CC-00342 was compared to (ii) 400 ppm Reb M 95% (rebaudioside M content 95% by weight on a dry basis). Both samples (i) and (ii) were formulated in a water matrix at 4° C.
The sensory profile of (i) 400 ppm CC-00345 was compared to (ii) 400 ppm Reb M 95% (rebaudioside M content 95% by weight on a dry basis). Both samples (i) and (ii) were formulated in a water matrix at 4° C.

Setting [1] is: Table 1 (CC-00326 vs Reb M 80%).
The mark [2] stands for this setting: Table 2 (CC-00342 vs Reb M 95%).
[3] abbreviates: Table 3 (CC-00345 vs Reb M 95%).
[4] abbreviates: Table 3 (CC-00345 vs Reb M 95%), p = 0.08 at the 90% CL.

With `C=C1C[C@@]23CCC4[C@](C)(C(=O)OC5OC(COC6OC(CO)C(O)C(O)C6O)C(O)C(O)C5O)CCC[C@@]4(C)[C@@H]2CCC1(OC1OC(CO)C(O)C(OC2OC(CO)C(O)C(O)C2O)C1OC1OC(CO)C(O)C(O)C1O)C3` (stereo partly drawn) [CC-00326, 13-[(2-O-β-D-glucopyranosyl-3-O-β-D-glucopyranosyl-β-D-glucopyranosyl)oxy] ent-kaur-16-en-19-oic acid-[(6-O-α-D-glucopyranosyl-β-D-glucopyranosyl) ester]], under setting [1], the “Bitter Aftertaste Intensity” value is on record as 0.9 A, the “Sweet Linger Intensity” value stood at 3.9 A, the “Overall Max Bitterness” value is 1.6 B and the “Overall Max Sweetness” value was 7.9 A. For the same molecule, under setting [1], the “Bitter Intensity In Mouth” value turned out to be 0.8 B and the “Sweet Intensity In Mouth” value worked out at 6.9 B.
Turning to `C=C1C[C@@]23CCC4[C@](C)(C(=O)OC5OC(COC6OC(CO)C(O)C(O)C6O)C(O)C(O)C5OC5OC(CO)C(O)C(O)C5O)CCC[C@@]4(C)[C@@H]2CCC1(OC1OC(CO)C(O)C(OC2OC(CO)C(O)C(O)C2O)C1OC1OC(CO)C(O)C(O)C1O)C3` (stereo partly drawn) [CC-00342], under setting [2], the “Bitter Aftertaste Intensity” value was 1.0, the “Sweet Linger Intensity” value stood at 3.8 A, the “Overall Max Bitterness” value is 2.0 and the “Overall Max Sweetness” value was determined as 8.1 A. Also, under setting [2], the “Bitter Intensity In Mouth” value turned out to be 1.2 and the “Sweet Intensity In Mouth” value amounted to 6.7 A.
Consider `C=C1C[C@@]23CCC4[C@](C)(C(=O)OC5OC(COC6OC(CO)C(O)C(O)C6O)C(O)C(OC6OC(CO)C(O)C(O)C6O)C5OC5OC(CO)C(O)C(O)C5O)CCC[C@@]4(C)[C@@H]2CCC1(OC1OC(CO)C(O)C(OC2OC(CO)C(O)C(O)C2O)C1OC1OC(CO)C(O)C(O)C1O)C3` (stereo partly drawn) [CC-00345], for which, under setting [3], the “Bitter Aftertaste Intensity” value worked out at 1.8 A, the “Sweet Linger Intensity” value amounted to 3.9 A, the “Overall Max Sweetness” value was 7.2 A and the “Bitter Intensity In Mouth” value came to 1.3 A. Besides, the “Sweet Intensity In Mouth” value under setting [3] is given as 6.6 A. Under setting [4], the “Overall Max Bitterness” value came to 2.2 A.
On to `C=C1C[C@@]23CC[C@H]4[C@@](C)(CCC[C@@]4(C)C(=O)O[C@@H]4O[C@H](CO)[C@@H](O)[C@H](O[C@@H]5O[C@H](CO)[C@@H](O)[C@H](O)[C@H]5O)[C@H]4O[C@@H]4O[C@H](CO)[C@@H](O)[C@H](O)[C@H]4O)[C@@H]2CC[C@]1(O[C@@H]1O[C@H](CO)[C@@H](O)[C@H](O[C@@H]2O[C@H](CO)[C@@H](O)[C@H](O)[C@H]2O)[C@H]1O[C@@H]1O[C@H](CO)[C@@H](O)[C@H](O)[C@H]1O)C3` [Reb M 80%, rebaudioside M], for which, under setting [1], the “Bitter Aftertaste Intensity” value came to 1.1 A, the “Sweet Linger Intensity” value was 4.3 A, the “Overall Max Bitterness” value was determined as 2.3 A and the “Overall Max Sweetness” value came to 9.0 A. Under setting [1], the “Bitter Intensity In Mouth” value was found to be 1.6 A and the “Sweet Intensity In Mouth” value worked out at 8.3 A.
Take `C=C1C[C@@]23CC[C@H]4[C@@](C)(CCC[C@@]4(C)C(=O)O[C@@H]4O[C@H](CO)[C@@H](O)[C@H](O[C@@H]5O[C@H](CO)[C@@H](O)[C@H](O)[C@H]5O)[C@H]4O[C@@H]4O[C@H](CO)[C@@H](O)[C@H](O)[C@H]4O)[C@@H]2CC[C@]1(O[C@@H]1O[C@H](CO)[C@@H](O)[C@H](O[C@@H]2O[C@H](CO)[C@@H](O)[C@H](O)[C@H]2O)[C@H]1O[C@@H]1O[C@H](CO)[C@@H](O)[C@H](O)[C@H]1O)C3` [Reb M 95%, rebaudioside M]: under setting [2], the “Bitter Aftertaste Intensity” value was 1.0, the “Sweet Linger Intensity” value was determined as 4.5 A, the “Overall Max Bitterness” value was 2.0 and the “Overall Max Sweetness” value stood at 8.5 A. Further, under setting [2], the “Bitter Intensity In Mouth” value turned out to be 1.1 and the “Sweet Intensity In Mouth” value came to 7.0 A. Under setting [3], the “Bitter Aftertaste Intensity” value was determined as 1.3 A, the “Sweet Linger Intensity” value worked out at 3.6 A, the “Overall Max Sweetness” value is listed as 7.4 A and the “Bitter Intensity In Mouth” value is on record as 1.3 A. Also, the “Sweet Intensity In Mouth” value under setting [3] came to 7.1 A. For the same molecule, under setting [4], the “Overall Max Bitterness” value was 1.5 A.
